Measured values from the kinase profiling compilation of Christmann-Franck et al. (2016).

Tests used:
Test in all cases: KINOMEscan competition binding
Details in all cases: compound 10.0 µM
MARK4 (human) = MARK4 (human) (UniProt Q96L34)
CSNK1G2 (human) = CSNK1G2 (human) (UniProt P78368)
CDKL3 (human) = CDKL3 (human) (UniProt Q8IVW4)
[1] = tested on: ABL1 (human), P00519 [H396P]
CaMK1 (human) = CaMK1 (human) (UniProt Q14012)
CAMKK2 (human) = CAMKK2 (human) (UniProt Q96RR4)
DDR2 (human) = DDR2 (human) (UniProt Q16832)
MAP3K11 (human) = MAP3K11 (human) (UniProt Q16584)
ERBB2 (human) = ERBB2 (human) (UniProt P04626)
FLT1 (human) = FLT1 (human) (UniProt P17948)
DDR1 (human) = DDR1 (human) (UniProt Q08345)
AURKA (human) = AURKA (human) (UniProt O14965)
NEK5 (human) = NEK5 (human) (UniProt Q6P3R8)
[2] = tested on: PIK3CA (human), P42336 [E545A]
RPS6KA2 KD2 (human) = RPS6KA2 KD2 (human) (UniProt Q15349)
BLK (human) = BLK (human) (UniProt P51451)
RPS6KA4 KD2 (human) = RPS6KA4 KD2 (human) (UniProt O75676)
STK17A (human) = STK17A (human) (UniProt Q9UEE5)
CSNK1G1 (human) = CSNK1G1 (human) (UniProt Q9HCP0)
NIM1 (human) = NIM1 (human) (UniProt Q8IY84)
IGF1R (human) = IGF1R (human) (UniProt P08069)
EPHA3 (human) = EPHA3 (human) (UniProt P29320)
ERBB3 (human) = ERBB3 (human) (UniProt P21860)
MAP3K13 (human) = MAP3K13 (human) (UniProt O43283)
YSK4 (human) = YSK4 (human) (UniProt Q56UN5)
CLK2 (human) = CLK2 (human) (UniProt P49760)
[3] = tested on: RET (human), P07949 [V804M]
MAP2K6 (human) = MAP2K6 (human) (UniProt P52564)
CDK19 (human) = CDK19 (human) (UniProt Q9BWU1)
MAP3K15 (human) = MAP3K15 (human) (UniProt Q6ZN16)
PIM3 (human) = PIM3 (human) (UniProt Q86V86)
DAPK1 (human) = DAPK1 (human) (UniProt P53355)
NTRK3 (human) = NTRK3 (human) (UniProt Q16288)
TNIK (human) = TNIK (human) (UniProt Q9UKE5)
CHUK (human) = CHUK (human) (UniProt O15111)
PIK3CD (human) = PIK3CD (human) (UniProt O00329)
LIMK2 (human) = LIMK2 (human) (UniProt P53671)
FER (human) = FER (human) (UniProt P16591)
ACVR2A (human) = ACVR2A (human) (UniProt P27037)
PIM1 (human) = PIM1 (human) (UniProt P11309)
MAP3K6 (human) = MAP3K6 (human) (UniProt O95382)

CSNK1G2 (human), sequence (P78368 whole entry, looked up): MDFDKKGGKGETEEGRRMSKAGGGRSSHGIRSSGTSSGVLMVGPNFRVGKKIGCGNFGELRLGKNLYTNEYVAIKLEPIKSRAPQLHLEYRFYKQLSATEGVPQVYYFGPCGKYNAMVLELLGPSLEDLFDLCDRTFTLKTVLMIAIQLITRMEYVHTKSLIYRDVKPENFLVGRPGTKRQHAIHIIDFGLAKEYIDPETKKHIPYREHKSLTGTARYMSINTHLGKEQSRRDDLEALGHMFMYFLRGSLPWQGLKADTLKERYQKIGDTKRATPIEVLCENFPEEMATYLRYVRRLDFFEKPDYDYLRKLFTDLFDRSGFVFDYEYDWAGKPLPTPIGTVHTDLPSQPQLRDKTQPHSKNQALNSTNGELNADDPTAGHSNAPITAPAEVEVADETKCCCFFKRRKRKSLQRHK
RET (human), P07949 [V804M], sequence (P07949 whole entry V804M, looked up): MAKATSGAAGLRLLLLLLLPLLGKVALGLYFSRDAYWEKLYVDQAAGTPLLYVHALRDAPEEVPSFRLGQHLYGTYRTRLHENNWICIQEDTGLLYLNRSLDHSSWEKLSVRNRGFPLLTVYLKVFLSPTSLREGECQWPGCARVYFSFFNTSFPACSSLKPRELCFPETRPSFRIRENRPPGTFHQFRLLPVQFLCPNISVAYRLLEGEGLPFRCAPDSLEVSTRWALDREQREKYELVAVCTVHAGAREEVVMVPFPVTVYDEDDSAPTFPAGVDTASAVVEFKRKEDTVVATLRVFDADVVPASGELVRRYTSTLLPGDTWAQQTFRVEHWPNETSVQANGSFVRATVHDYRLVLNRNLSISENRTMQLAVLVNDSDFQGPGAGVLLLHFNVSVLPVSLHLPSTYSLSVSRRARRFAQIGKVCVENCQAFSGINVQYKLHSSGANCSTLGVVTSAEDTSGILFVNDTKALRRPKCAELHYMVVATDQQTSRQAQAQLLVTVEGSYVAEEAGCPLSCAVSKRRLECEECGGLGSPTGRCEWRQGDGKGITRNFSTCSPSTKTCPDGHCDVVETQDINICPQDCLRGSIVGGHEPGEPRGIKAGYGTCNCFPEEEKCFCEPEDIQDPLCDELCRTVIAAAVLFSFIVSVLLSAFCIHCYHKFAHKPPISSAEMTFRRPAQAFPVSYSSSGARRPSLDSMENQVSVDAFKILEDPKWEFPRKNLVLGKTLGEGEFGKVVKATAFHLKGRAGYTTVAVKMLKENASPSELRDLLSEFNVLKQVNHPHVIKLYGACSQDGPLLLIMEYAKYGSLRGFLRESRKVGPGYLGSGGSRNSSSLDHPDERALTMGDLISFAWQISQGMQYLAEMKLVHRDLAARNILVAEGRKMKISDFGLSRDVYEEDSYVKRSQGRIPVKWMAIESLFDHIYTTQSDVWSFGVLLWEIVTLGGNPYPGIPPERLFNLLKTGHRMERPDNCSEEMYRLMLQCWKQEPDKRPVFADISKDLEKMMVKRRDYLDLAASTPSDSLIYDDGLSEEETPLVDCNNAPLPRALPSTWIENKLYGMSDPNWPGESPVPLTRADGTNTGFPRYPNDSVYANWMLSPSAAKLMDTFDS
CLK2 (human), sequence (P49760 whole entry, looked up): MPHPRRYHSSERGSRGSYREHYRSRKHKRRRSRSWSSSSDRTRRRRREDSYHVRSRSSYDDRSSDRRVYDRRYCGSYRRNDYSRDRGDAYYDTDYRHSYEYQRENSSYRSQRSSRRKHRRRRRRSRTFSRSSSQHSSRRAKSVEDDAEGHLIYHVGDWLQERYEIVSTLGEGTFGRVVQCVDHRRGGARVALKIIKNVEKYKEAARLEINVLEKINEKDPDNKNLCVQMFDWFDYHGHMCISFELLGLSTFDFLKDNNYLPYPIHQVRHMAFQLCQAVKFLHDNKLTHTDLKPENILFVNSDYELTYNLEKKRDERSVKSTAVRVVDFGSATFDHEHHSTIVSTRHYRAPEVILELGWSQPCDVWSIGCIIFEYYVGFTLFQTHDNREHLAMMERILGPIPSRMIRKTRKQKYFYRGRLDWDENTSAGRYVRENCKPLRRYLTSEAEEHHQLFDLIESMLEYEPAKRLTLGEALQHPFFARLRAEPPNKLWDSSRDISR
ERBB2 (human), sequence (P04626 whole entry, looked up): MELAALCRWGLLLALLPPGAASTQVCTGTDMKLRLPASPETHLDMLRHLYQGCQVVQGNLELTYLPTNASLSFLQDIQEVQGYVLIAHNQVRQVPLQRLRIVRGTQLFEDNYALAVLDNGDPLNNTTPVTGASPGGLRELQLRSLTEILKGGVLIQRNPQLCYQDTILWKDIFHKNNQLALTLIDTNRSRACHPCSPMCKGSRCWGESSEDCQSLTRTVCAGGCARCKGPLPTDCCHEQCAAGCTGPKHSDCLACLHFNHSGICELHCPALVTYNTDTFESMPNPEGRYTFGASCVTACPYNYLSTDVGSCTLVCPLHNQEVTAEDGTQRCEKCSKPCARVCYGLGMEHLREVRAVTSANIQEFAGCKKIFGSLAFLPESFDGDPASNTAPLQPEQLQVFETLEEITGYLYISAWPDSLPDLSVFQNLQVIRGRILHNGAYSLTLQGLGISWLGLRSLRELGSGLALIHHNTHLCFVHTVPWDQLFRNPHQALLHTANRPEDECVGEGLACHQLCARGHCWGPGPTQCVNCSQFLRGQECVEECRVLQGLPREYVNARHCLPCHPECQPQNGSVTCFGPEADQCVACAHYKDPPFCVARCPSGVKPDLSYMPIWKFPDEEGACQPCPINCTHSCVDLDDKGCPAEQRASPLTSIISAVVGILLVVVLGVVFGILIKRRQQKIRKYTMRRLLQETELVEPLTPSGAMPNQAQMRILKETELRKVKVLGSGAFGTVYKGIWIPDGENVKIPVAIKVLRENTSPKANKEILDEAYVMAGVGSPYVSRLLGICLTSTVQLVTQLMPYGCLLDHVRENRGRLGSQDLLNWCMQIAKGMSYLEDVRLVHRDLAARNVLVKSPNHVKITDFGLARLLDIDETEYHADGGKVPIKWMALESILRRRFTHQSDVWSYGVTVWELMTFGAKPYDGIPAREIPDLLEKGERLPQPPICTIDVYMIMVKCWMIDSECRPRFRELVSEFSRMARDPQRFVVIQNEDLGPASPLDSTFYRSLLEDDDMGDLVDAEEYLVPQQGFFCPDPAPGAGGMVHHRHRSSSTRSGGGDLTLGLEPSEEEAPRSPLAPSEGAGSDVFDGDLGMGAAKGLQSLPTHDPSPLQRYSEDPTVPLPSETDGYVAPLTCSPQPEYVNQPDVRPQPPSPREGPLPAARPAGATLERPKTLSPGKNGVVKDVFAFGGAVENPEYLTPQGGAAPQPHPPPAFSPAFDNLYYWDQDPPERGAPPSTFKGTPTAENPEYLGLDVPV
NEK5 (human), sequence (Q6P3R8 whole entry, looked up): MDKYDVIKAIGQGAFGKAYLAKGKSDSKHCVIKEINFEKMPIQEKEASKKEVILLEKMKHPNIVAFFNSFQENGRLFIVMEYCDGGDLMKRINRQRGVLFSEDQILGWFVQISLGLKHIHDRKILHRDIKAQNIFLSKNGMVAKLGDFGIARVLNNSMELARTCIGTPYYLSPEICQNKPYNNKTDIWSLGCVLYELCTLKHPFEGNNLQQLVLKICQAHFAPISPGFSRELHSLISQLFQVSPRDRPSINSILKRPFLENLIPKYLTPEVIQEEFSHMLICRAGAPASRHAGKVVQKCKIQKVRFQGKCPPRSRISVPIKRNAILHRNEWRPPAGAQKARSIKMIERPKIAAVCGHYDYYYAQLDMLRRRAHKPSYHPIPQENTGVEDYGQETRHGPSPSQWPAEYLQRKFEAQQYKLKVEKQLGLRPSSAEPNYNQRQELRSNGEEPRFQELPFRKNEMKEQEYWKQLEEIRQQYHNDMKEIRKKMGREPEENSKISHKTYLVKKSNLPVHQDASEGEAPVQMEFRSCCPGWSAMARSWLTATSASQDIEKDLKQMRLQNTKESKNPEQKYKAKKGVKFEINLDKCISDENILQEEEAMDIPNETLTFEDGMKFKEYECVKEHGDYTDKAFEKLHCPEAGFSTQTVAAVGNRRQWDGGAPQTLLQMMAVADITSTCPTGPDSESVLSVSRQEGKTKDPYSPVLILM
RPS6KA2 KD2 (human), sequence (Q15349 whole entry, looked up): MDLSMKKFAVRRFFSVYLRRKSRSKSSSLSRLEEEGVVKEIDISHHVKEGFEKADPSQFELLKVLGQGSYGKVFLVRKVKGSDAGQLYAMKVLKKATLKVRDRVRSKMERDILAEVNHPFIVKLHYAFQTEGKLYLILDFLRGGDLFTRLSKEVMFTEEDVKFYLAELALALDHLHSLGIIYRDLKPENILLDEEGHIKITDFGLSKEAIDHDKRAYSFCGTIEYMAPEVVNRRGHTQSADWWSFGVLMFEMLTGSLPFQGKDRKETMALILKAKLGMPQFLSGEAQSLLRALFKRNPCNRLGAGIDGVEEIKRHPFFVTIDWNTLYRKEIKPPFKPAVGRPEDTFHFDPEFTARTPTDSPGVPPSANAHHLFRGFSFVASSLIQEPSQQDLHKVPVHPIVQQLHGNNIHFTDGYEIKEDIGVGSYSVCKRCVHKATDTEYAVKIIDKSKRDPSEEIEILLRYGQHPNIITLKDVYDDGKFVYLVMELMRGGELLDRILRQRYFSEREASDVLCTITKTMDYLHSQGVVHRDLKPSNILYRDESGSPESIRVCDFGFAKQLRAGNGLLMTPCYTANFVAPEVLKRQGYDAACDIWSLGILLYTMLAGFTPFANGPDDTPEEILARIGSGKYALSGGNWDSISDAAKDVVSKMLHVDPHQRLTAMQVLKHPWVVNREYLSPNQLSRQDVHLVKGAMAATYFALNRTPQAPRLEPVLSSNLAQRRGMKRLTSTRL
MAP2K6 (human), sequence (P52564 whole entry, looked up): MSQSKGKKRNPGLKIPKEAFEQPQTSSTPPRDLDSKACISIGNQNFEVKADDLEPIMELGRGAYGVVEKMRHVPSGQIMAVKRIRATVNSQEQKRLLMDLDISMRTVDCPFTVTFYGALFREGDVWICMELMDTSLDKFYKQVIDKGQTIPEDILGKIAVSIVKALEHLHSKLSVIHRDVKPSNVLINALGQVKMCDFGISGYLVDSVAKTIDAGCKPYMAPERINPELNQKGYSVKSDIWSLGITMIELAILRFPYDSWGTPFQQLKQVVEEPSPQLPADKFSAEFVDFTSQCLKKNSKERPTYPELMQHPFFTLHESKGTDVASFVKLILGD

`O=C1Nc2cc(Br)ccc2/C1=C1/Nc2ccccc2/C1=N\O` was tested, and the kinase still bound, per cent of control (MARK4 (human)) was 35%, the kinase still bound, per cent of control (CSNK1G2 (human)) was 78% and the kinase still bound, per cent of control (CDKL3 (human)) was 82%. The kinase still bound, per cent of control [1] was 4.5%, the kinase still bound, per cent of control (CaMK1 (human)) was 28% and the kinase still bound, per cent of control (CAMKK2 (human)) was 37%. The kinase still bound, per cent of control (DDR2 (human)) was 23%, the kinase still bound, per cent of control (MAP3K11 (human)) was 5.6% and the kinase still bound, per cent of control (ERBB2 (human)) was 87%. The kinase still bound, per cent of control (FLT1 (human)) was 1.3%, the kinase still bound, per cent of control (DDR1 (human)) was 55% and the kinase still bound, per cent of control (AURKA (human)) was 20%. For the same compound, the kinase still bound, per cent of control (NEK5 (human)) was 80%, the kinase still bound, per cent of control [2] was 100% and the kinase still bound, per cent of control (RPS6KA2 KD2 (human)) was 79%. For the same compound, the kinase still bound, per cent of control (BLK (human)) was 0.05%, the kinase still bound, per cent of control (RPS6KA4 KD2 (human)) was 44% and the kinase still bound, per cent of control (STK17A (human)) was 0%. The kinase still bound, per cent of control (CSNK1G1 (human)) was 39%, the kinase still bound, per cent of control (NIM1 (human)) was 85% and the kinase still bound, per cent of control (IGF1R (human)) was 83%. The kinase still bound, per cent of control (EPHA3 (human)) was 1.7%, the kinase still bound, per cent of control (ERBB3 (human)) was 61% and the kinase still bound, per cent of control (MAP3K13 (human)) was 54%. It also gave a kinase still bound, per cent of control (YSK4 (human)) of 3.8%, a kinase still bound, per cent of control (CLK2 (human)) of 8.2% and a kinase still bound, per cent of control [3] of 0%. The kinase still bound, per cent of control (MAP2K6 (human)) was 47%, the kinase still bound, per cent of control (CDK19 (human)) was 100% and the kinase still bound, per cent of control (MAP3K15 (human)) was 43%. It also gave a kinase still bound, per cent of control (PIM3 (human)) of 30%, a kinase still bound, per cent of control (DAPK1 (human)) of 3.6% and a kinase still bound, per cent of control (NTRK3 (human)) of 16%. The kinase still bound, per cent of control (TNIK (human)) was 4.6%, the kinase still bound, per cent of control (CHUK (human)) was 83% and the kinase still bound, per cent of control (PIK3CD (human)) was 100%. The kinase still bound, per cent of control (LIMK2 (human)) was 92%, the kinase still bound, per cent of control (FER (human)) was 100% and the kinase still bound, per cent of control (ACVR2A (human)) was 41%. For the same compound, the kinase still bound, per cent of control (PIM1 (human)) was 62% and the kinase still bound, per cent of control (MAP3K6 (human)) was 41%.
